From PubChem BioAssay (NCI)
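Growth conditions: 96-well plates. Treatment: test compound, 48 hours, 5 concentrations. Analysis: linear interpolation between bracketing concentrations; unreached endpoints set to highest concentration. TGI: total growth inhibition.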

Key:
Test in all cases: DTP human tumour cell line panel, 48 h
786-0 renal = system: 786-0 renal
A498 renal = system: A498 renal
A549 NSCLC = system: A549 NSCLC
ACHN renal = system: ACHN renal
BT-549 breast = system: BT-549 breast
CAKI-1 renal = system: CAKI-1 renal
CCRF-CEM leukemia = system: CCRF-CEM leukemia
DU-145 prostate = system: DU-145 prostate
EKVX NSCLC = system: EKVX NSCLC
HCC-2998 colon = system: HCC-2998 colon
HCT-116 colon = system: HCT-116 colon
HCT-15 colon = system: HCT-15 colon
HL-60(TB) leukemia = system: HL-60(TB) leukemia
HOP-62 NSCLC = system: HOP-62 NSCLC
HOP-92 NSCLC = system: HOP-92 NSCLC
HS 578T breast = system: HS 578T breast
HT29 colon = system: HT29 colon
IGROV1 ovarian = system: IGROV1 ovarian
K-562 leukemia = system: K-562 leukemia
KM12 colon = system: KM12 colon
LOX IMVI melanoma = system: LOX IMVI melanoma
MALME-3M melanoma = system: MALME-3M melanoma
MCF7 breast = system: MCF7 breast
MDA-MB-231 breast = system: MDA-MB-231 breast
MDA-MB-435 = system: MDA-MB-435
MDA-N = system: MDA-N
MOLT-4 leukemia = system: MOLT-4 leukemia
NCI-H226 lung = system: NCI-H226 lung
NCI-H23 lung = system: NCI-H23 lung
NCI-H460 lung = system: NCI-H460 lung
NCI-H522 lung = system: NCI-H522 lung
NCI/ADR-RES ovarian = system: NCI/ADR-RES ovarian
OVCAR-3 ovarian = system: OVCAR-3 ovarian
OVCAR-4 ovarian = system: OVCAR-4 ovarian
OVCAR-5 ovarian = system: OVCAR-5 ovarian
OVCAR-8 ovarian = system: OVCAR-8 ovarian
PC-3 prostate = system: PC-3 prostate
RPMI-8226 leukemia = system: RPMI-8226 leukemia
RXF 393 renal = system: RXF 393 renal
SF-268 CNS = system: SF-268 CNS
SF-295 CNS = system: SF-295 CNS
SF-539 CNS = system: SF-539 CNS
SK-MEL-2 melanoma = system: SK-MEL-2 melanoma
SK-MEL-28 melanoma = system: SK-MEL-28 melanoma
SK-MEL-5 melanoma = system: SK-MEL-5 melanoma
SK-OV-3 ovarian = system: SK-OV-3 ovarian
SN12C renal = system: SN12C renal
SNB-19 CNS = system: SNB-19 CNS
SNB-75 CNS = system: SNB-75 CNS
SR leukemia = system: SR leukemia
SW-620 colon = system: SW-620 colon
T-47D breast = system: T-47D breast
TK-10 renal = system: TK-10 renal
U251 CNS = system: U251 CNS
UACC-257 melanoma = system: UACC-257 melanoma
UACC-62 melanoma = system: UACC-62 melanoma
UO-31 renal = system: UO-31 renal
COLO 205 colon = system: COLO 205 colon
M14 melanoma = system: M14 melanoma

Measured: TGI

Nc1nc(Cl)cc(NCC2(O)CC2)n1
not listed: COLO 205 colon | M14 melanoma
> 100 µM: all other assays above

CC(C)C(=O)C(C)(C)CCc1ccccn1
not listed: MOLT-4 leukemia | SF-539 CNS
> 100 µM: all other assays above
